Laboratory results reported in ChEMBL document CHEMBL3046829, “Design, synthesis, and structureactivity relationship study of 5-amido-1-(2,4-dinitrophenyl)-1H-4-pyrazolecarbonitrils as DD-carboxypeptidase/penicillin-binding protein inhibitors with Gram-positive antibacterial activity” (2010).
In brackets after ≈: the same amount, converted by molar mass. Activity calls are given as the source filed them. The calls are words filed in the database; no cut-off is given here.

Tests used:
Staphylococcus aureus [1] = experiment: Antibacterial activity against methicillin-susceptible Staphylococcus aureus ATCC 1112 after 18 hr by NCCLS dilution tube method; type: functional; details: for MIC: ATCC 1112, 18 h
Klebsiella pneumoniae [2] = experiment: Antibacterial activity against Klebsiella pneumoniae at > 1000 uM after 18 hr by NCCLS dilution tube method; type: functional, organism-based
Pseudomonas aeruginosa [3] = experiment: Antibacterial activity against Pseudomonas aeruginosa at > 1000 uM after 18 hr by NCCLS dilution tube method; type: functional, organism-based
Staphylococcus aureus [4] = experiment: Antibacterial activity against methicillin-resistant Staphylococcus aureus after 18 hr by NCCLS dilution tube method; type: functional
Streptococcus pyogenes = experiment: Antibacterial activity against Streptococcus pyogenes after 18 hr by NCCLS dilution tube method; type: functional
Streptococcus pneumoniae = experiment: Antibacterial activity against Streptococcus pneumoniae after 18 hr by NCCLS dilution tube method; type: functional
Klebsiella pneumoniae [5] = experiment: Antibacterial activity against Klebsiella pneumoniae after 18 hr by NCCLS dilution tube method; type: functional
Pseudomonas aeruginosa [6] = experiment: Antibacterial activity against Pseudomonas aeruginosa after 18 hr by NCCLS dilution tube method; type: functional

Row | SMILES | MIC (Staphylococcus aureus [1]) [µM] | MIC (Staphylococcus aureus [4]) [µM] | further results
1 | N#Cc1cnn(-c2ccc([N+](=O)[O-])cc2[N+](=O)[O-])c1NC(=O)c1ccccc1 | 132 (≈ 50 µg/mL) | 264 (≈ 100 µg/mL) | Activity (Klebsiella pneumoniae [2]): inactive; Activity (Pseudomonas aeruginosa [3]): inactive
2 | N#Cc1cnn(-c2ccc([N+](=O)[O-])cc2[N+](=O)[O-])c1NC(=O)c1ccc(Br)cc1 | 27.4 (≈ 12.5 µg/mL) | 27.4 (≈ 12.5 µg/mL) | –
3 | N#Cc1cnn(-c2ccc([N+](=O)[O-])cc2[N+](=O)[O-])c1N | – | – | Activity (Streptococcus pyogenes): inactive; Activity (Staphylococcus aureus [1]): inactive; Activity (Streptococcus pneumoniae): inactive
4 | COc1ccc(C(=O)Nc2c(C#N)cnn2-c2ccc([N+](=O)[O-])cc2[N+](=O)[O-])cc1 | 31.9 (≈ 13 µg/mL) | 15.3 (≈ 6.25 µg/mL) | –
5 | Cc1onc(-c2ccccc2Cl)c1C(=O)N[C@@H]1C(=O)N2[C@@H]1SC(C)(C)[C@@H]2C(=O)O [CLOXACILLIN] | 13.7 (≈ 5.97 µg/mL) | 94 (≈ 41 µg/mL) | –
6 | N#Cc1cnn(-c2ccc([N+](=O)[O-])cc2[N+](=O)[O-])c1NC(=O)c1ccc(F)cc1 | 126 (≈ 50.1 µg/mL) | 252 (≈ 100 µg/mL) | –
7 | Cc1ccc(C(=O)Nc2c(C#N)cnn2-c2ccc([N+](=O)[O-])cc2[N+](=O)[O-])cc1 | 60.5 (≈ 23.7 µg/mL) | 63.8 (≈ 25 µg/mL) | –
8 | CC(=O)Nc1c(C#N)cnn1-c1ccc([N+](=O)[O-])cc1[N+](=O)[O-] | 316 (≈ 99.9 µg/mL) | 632 (≈ 200 µg/mL) | MIC (Streptococcus pyogenes): 100 µg/mL (≈ 316 µM); Activity (Klebsiella pneumoniae [2]): inactive; Activity (Pseudomonas aeruginosa [3]): inactive; MIC (Streptococcus pneumoniae): 100 µg/mL (≈ 316 µM)
9 | CC1=C(C(=O)O)N2C(=O)[C@@H](NC(=O)[C@H](N)c3ccccc3)[C@H]2SC1 [CEPHALEXIN ANHYDROUS] | 4.6 (≈ 1.6 µg/mL) | 72 (≈ 25 µg/mL) | –
10 | N#Cc1cnn(-c2ccc([N+](=O)[O-])cc2[N+](=O)[O-])c1NC(=O)C12CC3CC(CC(C3)C1)C2 | 57.4 (≈ 25.1 µg/mL) | 57.4 (≈ 25.1 µg/mL) | MIC (Klebsiella pneumoniae [5]): > 300 µM; MIC (Pseudomonas aeruginosa [6]): > 300 µM
11 | N#Cc1cnn(-c2ccc([N+](=O)[O-])cc2[N+](=O)[O-])c1NC(=O)C1CCCCC1 | 195 (≈ 75.1 µg/mL) | 391 (≈ 150 µg/mL) | Activity (Klebsiella pneumoniae [2]): inactive; Activity (Pseudomonas aeruginosa [3]): inactive
12 | N#Cc1cnn(-c2ccc([N+](=O)[O-])cc2[N+](=O)[O-])c1NC(=O)c1ccc(Cl)cc1 | 15.3 (≈ 6.32 µg/mL) | 60.5 (≈ 25 µg/mL) | –
13 | CN(C)c1ccc(C(=O)Nc2c(C#N)cnn2-c2ccc([N+](=O)[O-])cc2[N+](=O)[O-])cc1 | 3.8 (≈ 1.6 µg/mL) | 3.8 (≈ 1.6 µg/mL) | –
